Tested on: A-673 cells
Experiment: Cell viability, crystal violet staining
Format: cell-based
Settings: Homo sapiens, A673, cell viability, read-out: A-673 IC50 (nM) Cell viability
Experimental: To measure cell viability, cells were plated in 96-well plastic tissue culture plates at a density of 5×10^3 cells/well. Twenty-four hours after plating, cells were treated with various SMSMs. After 72 hours, the cell culture media were removed and plates were stained with […] of a solution containing 0.5% crystal violet and 25% methanol, rinsed with deionized water, dried overnight, and resuspended in […] citrate buffer (0.1 M sodium citrate in 50% ethanol) to assess plating efficiency. Intensity of crystal violet staining, assessed at 570 nm and quantified using a Vmax Kinetic Microplate Reader and Softmax software (Molecular Devices Corp., Menlo Park, Calif.), were directly proportional to cell number. Data were normalized to vehicle-treated cells and were presented as the mean±SE from representative experiments. SMSMs that are effective were determined for various cells lines.
A-673 cell viability […], splicing (IC50) and brain AUC/Plasma AUC of SMSMs were determined. As shown in the tables below SMSMs had high CNS exposure.

First: COc1cccc(-c2ccc(-c3ccc(N(C)[C@H]4C[C@]5(C)CC[C@](C)(C4)N5)nn3)c(O)c2)c1 [compound 209, 4-(6-(((1R,3s,5S)-1,5-dimethyl-8-azabicyclo[3.2.1]octan-3-yl)(methyl)amino)pyridazin-3-yl)-3′-methoxy-[1,1′-biphenyl]-3-ol]
Second: COc1cncc(-c2ccc(-c3ccc(N(C)[C@H]4C[C@]5(C)CC[C@](C)(C4)N5)nn3)c(O)c2)c1 [compound 211, 2-(6-(((1R,3s,5S)-1,5-dimethyl-8-azabicyclo[3.2.1]octan-3-yl)(methyl)amino)pyridazin-3-yl)-5-(5-methoxypyridin-3-yl)phenol]
The IC50 of the first is higher: greater than 1000 nM for the first, 251 to 500 nM for the second.

First: COc1cc(-c2ccc(-c3ccc(N(C)[C@H]4C[C@]5(C)CC[C@](C)(C4)N5)nn3)c(O)c2)ccc1F [compound 210, 4-(6-(((1R,3s,5S)-1,5-dimethyl-8-azabicyclo[3.2.1]octan-3-yl)(methyl)amino)pyridazin-3-yl)-4′-fluoro-3′-methoxy-[1,1′-biphenyl]-3-ol]
Second: COc1cc(-c2cc(O)c(-c3ccc(N(C)[C@H]4C[C@]5(C)CC[C@](C)(C4)N5)nn3)cc2F)cnn1 [compound 213, 2-(6-(((1R,3s,5S)-1,5-dimethyl-8-azabicyclo[3.2.1]octan-3-yl)(methyl)amino)pyridazin-3-yl)-4-fluoro-5-(6-methoxypyridazin-4-yl)phenol]
The IC50 of the first is higher: 251 to 500 nM for the first, less than 10 nM for the second. The second is the more potent here.

Same assay, conditions: Homo sapiens, A673, cell viability, read-out: A-673 IC50 (nM), Cell viability

First: Cc1nnnn1-c1ccc(-c2ccc(N(C)[C@@H]3C[C@H]4CC[C@@H](C3)N4)nn2)c(O)c1 [compound 233, 2-(6-(((1R,3s,5S)-8-azabicyclo[3.2.1]octan-3-yl)(methyl)amino)pyridazin-3-yl)-5-(5-methyl-1H-tetrazol-1-yl)phenol]
Second: Cc1ncn(-c2ccc(-c3ccc(N(C)[C@@H]4C[C@H]5CC[C@@H](C4)N5)nn3)c(O)c2)n1 [compound 244, 2-(6-(((1R,3s,5S)-8-azabicyclo[3.2.1]octan-3-yl)(methyl)amino)pyridazin-3-yl)-5-(3-methyl-1H-1,2,4-triazol-1-yl)phenol]
The IC50 of the first is higher: greater than 1000 nM for the first, 101 to 250 nM for the second. The second is the more potent here.

First: CN(c1ccc(-c2ccc(-n3cnnc3)cc2O)nn1)[C@@H]1C[C@H]2CC[C@@H](C1)N2 [compound 235, 2-(6-(((1R,3s,5S)-8-azabicyclo[3.2.1]octan-3-yl)(methyl)amino)pyridazin-3-yl)-5-(4H-1,2,4-triazol-4-yl)phenol]
Second: CN(c1ccc(-c2ccc(-n3ccnc3)cc2O)nn1)[C@@H]1C[C@H]2CCC[C@@H](C1)N2 [compound 272, 2-(6-(((1R,3s,5S)-9-azabicyclo[3.3.1]nonan-3-yl)(methyl)amino)pyridazin-3-yl)-5-(1H-imidazol-1-yl)phenol]
The IC50 of the first is higher: greater than 1000 nM for the first, 10 to 100 nM for the second. The second is the more potent here.

Compared with Cc1ccc(-c2ccc(-c3ccc(N(C)[C@@H]4C[C@H]5CC[C@@H](C4)N5)nn3)c(O)c2)cn1 [compound 236, 2-(6-(((1R,3s,5S)-8-azabicyclo[3.2.1]octan-3-yl)(methyl)amino)pyridazin-3-yl)-5-(6-methylpyridin-3-yl)phenol], Cc1ncc(-c2ccc(-c3ccc(N(C)[C@@H]4C[C@H]5CC[C@@H](C4)N5)nn3)c(O)c2)cn1 [compound 237, 2-(6-(((1R,3s,5S)-8-azabicyclo[3.2.1]octan-3-yl)(methyl)amino)pyridazin-3-yl)-5-(2-methylpyrimidin-5-yl)phenol] is higher in IC50: 101 to 250 nM for the first, 501 to 1000 nM for the second. The first is the more potent here.

First: Cc1nnc(-c2ccc(-c3ccc(O[C@@H]4C[C@H]5CC[C@@H](C4)N5)nn3)c(O)c2)o1 [compound 247, 2-(6-(((1R,3s,5S)-8-azabicyclo[3.2.1]octan-3-yl)oxy)pyridazin-3-yl)-5-(5-methyl-1,3,4-oxadiazol-2-yl)phenol]
Second: Oc1cc(-n2cccn2)ccc1-c1ccc(O[C@@H]2C[C@H]3CC[C@@H](C2)N3)nn1 [compound 248, 2-(6-(((1R,3s,5S)-8-azabicyclo[3.2.1]octan-3-yl)oxy)pyridazin-3-yl)-5-(1H-pyrazol-1-yl)phenol]
The IC50 of the first is higher: greater than 1000 nM for the first, 501 to 1000 nM for the second. The second is the more potent here.

CN(c1ccc(-c2ccc(-c3ccn(C)c(=O)c3)cc2O)nn1)[C@H]1C[C@]2(C)CCC[C@](C)(C1)N2 [compound 259, 4-(4-(6-(((1R,3s,5S)-1,5-dimethyl-9-azabicyclo[3.3.1]nonan-3-yl)(methyl)amino)pyridazin-3-yl)-3-hydroxyphenyl)-1-methylpyridin-2(1H)-one] and CN(c1ccc(-c2ccc(-c3cnn(C)c(=O)c3)cc2O)nn1)[C@H]1C[C@]2(C)CCC[C@](C)(C1)N2 [compound 260, 5-(4-(6-(((1R,3s,5S)-1,5-dimethyl-9-azabicyclo[3.3.1]nonan-3-yl)(methyl)amino)pyridazin-3-yl)-3-hydroxyphenyl)-2-methylpyridazin-3(2H)-one] cannot be ordered by IC50: less than 10 nM for the first, less than 10 nM for the second.

First: CNC(=O)c1cc2cc(-c3ccc(N(C)[C@H]4C[C@]5(C)CCC[C@](C)(C4)N5)nn3)c(O)cc2o1 [compound 261, 5-(6-(((1R,3s,5S)-1,5-dimethyl-9-azabicyclo[3.3.1]nonan-3-yl)(methyl)amino)pyridazin-3-yl)-6-hydroxy-N-methylbenzofuran-2-carboxamide]
Second: CN(c1ccc(-c2cc(F)c(-c3ccn(C)c(=O)c3)cc2O)nn1)[C@H]1C[C@]2(C)CCC[C@](C)(C1)N2 [compound 265, 4-(4-(6-(((1R,3s,5S)-1,5-dimethyl-9-azabicyclo[3.3.1]nonan-3-yl)(methyl)amino)pyridazin-3-yl)-2-fluoro-5-hydroxyphenyl)-1-methylpyridin-2(1H)-one]
The IC50 of the first is higher: 10 to 100 nM for the first, less than 10 nM for the second.

Compared with C[C@]12CCC[C@](C)(C[C@@H](Oc3ccc(-c4ccc(-c5cn[nH]c5)cc4O)nn3)C1)N2 [compound 262, 2-(6-(((1R,3s,5S)-1,5-dimethyl-9-azabicyclo[3.3.1]nonan-3-yl)oxy)pyridazin-3-yl)-5-(1H-pyrazol-4-yl)phenol], C[C@]12CCC[C@](C)(C[C@@H](Oc3ccc(-c4cc(F)c(-c5cn[nH]c5)cc4O)nn3)C1)N2 [compound 263, 2-(6-(((1R,3s,5S)-1,5-dimethyl-9-azabicyclo[3.3.1]nonan-3-yl)oxy)pyridazin-3-yl)-4-fluoro-5-(1H-pyrazol-4-yl)phenol] is lower in IC50: 101 to 250 nM for the first, less than 10 nM for the second. The second is the more potent here.

[2H]C([2H])([2H])Oc1cc(-c2ccc(-c3ccc(N(C)[C@H]4C[C@]5(C)CCC[C@](C)(C4)N5)nn3)c(O)c2)cnn1 [compound 268, 2-(6-(((1R,3s,5S)-1,5-dimethyl-9-azabicyclo[3.3.1]nonan-3-yl)(methyl)amino)pyridazin-3-yl)-5-(6-(methoxy-d3)pyridazin-4-yl)phenol] and [2H]C([2H])([2H])Oc1cc(-c2cc(O)c(-c3ccc(N(C)[C@H]4C[C@]5(C)CCC[C@](C)(C4)N5)nn3)cc2F)cnn1 [compound 269, 2-(6-(((1R,3s,5S)-1,5-dimethyl-9-azabicyclo[3.3.1]nonan-3-yl)(methyl)amino)pyridazin-3-yl)-4-fluoro-5-(6-(methoxy-d3)pyridazin-4-yl)phenol] cannot be ordered by IC50: less than 10 nM for the first, less than 10 nM for the second.

CN(c1ccc(-c2cc(F)c(-c3cn[nH]c3)cc2O)nn1)[C@@H]1C[C@H]2CCC[C@@H](C1)N2 [compound 271, 2-(6-(((1R,3s,5S)-9-azabicyclo[3.3.1]nonan-3-yl)(methyl)amino)pyridazin-3-yl)-4-fluoro-5-(1H-pyrazol-4-yl)phenol] and CN(c1ccc(-c2cc(F)c(-c3cnn(C)c(=O)c3)cc2O)nn1)[C@@H]1C[C@H]2CCC[C@@H](C1)N2 [compound 286, 5-(4-(6-(((1R,3s,5S)-9-azabicyclo[3.3.1]nonan-3-yl)(methyl)amino)pyridazin-3-yl)-2-fluoro-5-hydroxyphenyl)-2-methylpyridazin-3(2H)-one] cannot be ordered by IC50: less than 10 nM for the first, less than 10 nM for the second.

Cc1ncc(-c2ccc(-c3ccc(N(C)[C@@H]4C[C@H]5CCC[C@@H](C4)N5)nn3)c(O)c2)o1 [compound 273, 2-(6-(((1R,3s,5S)-9-azabicyclo[3.3.1]nonan-3-yl)(methyl)amino)pyridazin-3-yl)-5-(2-methyloxazol-5-yl)phenol] and Cc1ncc(-c2cc(O)c(-c3ccc(N(C)[C@@H]4C[C@H]5CCC[C@@H](C4)N5)nn3)cc2F)o1 [compound 274, 2-(6-(((1R,3s,5S)-9-azabicyclo[3.3.1]nonan-3-yl)(methyl)amino)pyridazin-3-yl)-4-fluoro-5-(2-methyloxazol-5-yl)phenol] cannot be ordered by IC50: less than 10 nM for the first, less than 10 nM for the second.

First: CN(c1ccc(-c2ccc(-c3cnn(C)c(=O)c3)cc2O)nn1)[C@@H]1C[C@H]2CCC[C@@H](C1)N2 [compound 280, 5-(4-(6-(((1R,3s,5S)-9-azabicyclo[3.3.1]nonan-3-yl)(methyl)amino)pyridazin-3-yl)-3-hydroxyphenyl)-2-methylpyridazin-3(2H)-one]
Second: CN(c1ccc(-c2ccc(-c3cnn(C)c3)cc2O)nn1)[C@@H]1C[C@H]2CCC[C@@H](C1)N2 [compound 287, 2-(6-(((1R,3s,5S)-9-azabicyclo[3.3.1]nonan-3-yl)(methyl)amino)pyridazin-3-yl)-5-(1-methyl-1H-pyrazol-4-yl)phenol]
The IC50 of the first is higher: 10 to 100 nM for the first, less than 10 nM for the second. The second is the more potent here.

CN(c1ccc(-c2ccc(-c3ccn(C)c(=O)c3)cc2O)nn1)[C@@H]1C[C@H]2CCC[C@@H](C1)N2 [compound 283, 4-(4-(6-(((1R,3s,5S)-9-azabicyclo[3.3.1]nonan-3-yl)(methyl)amino)pyridazin-3-yl)-3-hydroxyphenyl)-1-methylpyridin-2(1H)-one] was tested, and the IC50 was less than 10 nM.

Same assay, conditions: Homo sapiens, A673, read-out: A-673 cell viability (IC50)

In the case of CN(c1ccc(-c2ccc(-c3ccn(C)c(=O)c3)cc2O)nn1)[C@H]1C[C@]2(C)CCC[C@](C)(C1)N2 [compound 259, 4-(4-(6-(((1R,3s,5S)-1,5-dimethyl-9-azabicyclo[3.3.1]nonan-3-yl)(methyl)amino)pyridazin-3-yl)-3-hydroxyphenyl)-1-methylpyridin-2(1H)-one], the IC50 is reported as less than 1 nM.

Same assay, conditions: cell viability, read-out: A-673 IC50 (nM), Cell viability

Oc1cc(-c2cn[nH]c2)ccc1-c1ccc(O[C@@H]2C[C@H]3CCC[C@@H](C2)N3)nn1 [compound 276, 2-(6-(((1R,3s,5S)-9-azabicyclo[3.3.1]nonan-3-yl)oxy)pyridazin-3-yl)-5-(1H-pyrazol-4-yl)phenol] showed an IC50 of 101 to 250 nM.
